From patent publication US7824850B2, “Methods of protein destabilization and uses thereof” (Aurora Biosciences Corporation, priority 2000, dated 2010)
Each block holds one compound with its values, some of them ahead of it. Where a SMILES comes first, the peptide text is derived from it. [ ]: non-standard residue; d: D form. The star is where a group is joined. Nle = CCCC[C@H](N)C(=O)O; Cbz = O=C(OCc1ccccc1)*; CH2F = FC*

Assays:
proteasome [1] = target: T1, proteasome (Homo sapiens, UniProt P28074); conditions: read-out: IC50 inhibition of decay of β-lactamase activity; Jurkat cells expressing 2XUb-Bla, 30 minutes preincubation, cycloheximide 1 hour
T1 sequence (P28074 60-263): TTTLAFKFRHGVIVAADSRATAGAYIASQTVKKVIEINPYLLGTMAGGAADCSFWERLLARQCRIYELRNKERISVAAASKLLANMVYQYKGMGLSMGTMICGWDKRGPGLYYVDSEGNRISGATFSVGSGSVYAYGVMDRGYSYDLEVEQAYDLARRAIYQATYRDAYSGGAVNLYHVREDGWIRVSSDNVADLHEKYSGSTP
T1 sequence (P28072 35-239 partner): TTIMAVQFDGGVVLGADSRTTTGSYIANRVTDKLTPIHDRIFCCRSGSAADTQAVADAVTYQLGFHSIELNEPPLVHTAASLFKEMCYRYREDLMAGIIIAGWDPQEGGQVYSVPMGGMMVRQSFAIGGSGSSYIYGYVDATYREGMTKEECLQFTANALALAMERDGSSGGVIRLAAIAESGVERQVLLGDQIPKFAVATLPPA
T1 sequence (Q99436 44-277 partner): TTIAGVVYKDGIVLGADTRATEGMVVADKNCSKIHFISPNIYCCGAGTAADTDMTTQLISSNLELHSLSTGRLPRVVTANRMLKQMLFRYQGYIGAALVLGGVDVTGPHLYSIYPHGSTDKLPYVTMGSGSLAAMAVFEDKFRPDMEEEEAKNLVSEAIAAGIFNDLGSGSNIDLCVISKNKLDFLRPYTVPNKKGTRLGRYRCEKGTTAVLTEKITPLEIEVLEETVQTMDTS

proteasome [2] = assay: In vitro degradation of 2XUb-Bla in chase lysate with inhibitors; conditions: 20 minutes at 37° C.
[3] = overnight treatment of Jurkat cells; cited from earlier work
proteasome [4] = assay: TNT in vitro synthesis of multiUb-Bla fusions with or without proteasome inhibitor; conditions: 50 μM; β-lactamase fusions containing 2, 3 or 4 copies of ubiquitinG76V
group II caspases = assay: Caspase activity assay in Jurkat clones expressing 2XUb-DEVD-Bla or 2XUb-DEVA-Bla (CCF2-AM, 460/530 ratio); assay type: cell-based, human
HRV16 2A protease = assay: HRV 2A protease cell-based assay, Jurkat clone expressing 3XUb-HRV16-Bla; set-up: species or system human rhinovirus 16; conditions: compound 1 μM, 4 hours, cycloheximide 30 minutes
Protocol: (§1) To assay HRV 2A protease activity, the selected Jurkat stable cell clones were treated for 16 hours with […] clavulanate to inactivate pre-existing cleaved and uncleaved HRV 2A-Bla fusion protein. Cells were then washed twice with PBS, resuspended at 100,000 cells/well in 100 μl RPMI+10% FBS in 96-well plates. The cells were incubated at 37° C. for 4 hours in the presence or absence of an inhibitor of the 2A protease. Cells were treated with 100 μg/ml cycloheximide for 30 minutes at 37° C., loaded with CCF2-AM for 2 hours at room temperature and read on the CytoFluor plate reader as described in Example 8. Inhibitor compounds, radicicol and geldanamycin, were used for the validation of the HRV protease cell-based assay. […] Compounds were tested at 1 μM for their ability to inhibit the HRV 2A protease cell-based assay using clones expressing HRV16 and HRV14 2A protease reporters.

HRV14 2A protease = assay: HRV 2A protease cell-based assay, Jurkat clone expressing 3XUb-HRV14-Bla; set-up: species or system human rhinovirus 14; conditions: compound 1 μM, 4 hours, cycloheximide 30 minutes
Protocol: as §1

β-lactamase = target: T2, β-lactamase (Escherichia coli, UniProt P62593); assay: Control: β-lactamase activity in Jurkat cells expressing wild-type β-lactamase; assay type: cell-based; conditions: data not shown
T2 construct: wild-type (cleavable) ubiquitin (N, cleaved yes); expressed in transfected cells; host or cells: Jurkat
T2 sequence (P62593 24-286 limits assumed): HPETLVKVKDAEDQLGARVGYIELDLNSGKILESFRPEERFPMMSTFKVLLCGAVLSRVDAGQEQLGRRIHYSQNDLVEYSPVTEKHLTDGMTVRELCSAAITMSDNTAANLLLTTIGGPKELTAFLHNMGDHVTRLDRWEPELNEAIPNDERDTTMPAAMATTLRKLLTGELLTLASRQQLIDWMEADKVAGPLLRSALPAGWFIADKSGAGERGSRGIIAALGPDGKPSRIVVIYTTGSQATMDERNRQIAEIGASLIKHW

SMILES: CCCC[C@@H](C=O)NC(=O)[C@H](CC(C)C)NC(=O)[C@H](CC(C)C)NC(C)=O [Ac-LLN] (Ac-Leu-Leu-[Nle]-aldehyde)
- IC50 (proteasome [1]): 13 µM
- effect on degradation of 2XUb-Bla in vitro (proteasome [2]; 50 μM): stabilized the 2XUb-Bla fusion protein

SMILES: O=C(O)[C@H]1/C(=C/CO)O[C@@H]2CC(=O)N21 [Clavulanate, clavulanate]
- effect on β-lactamase levels [3]: reduces β-lactamase levels to background

SMILES: CC(C)C[C@@H](C=O)NC(=O)[C@H](CC(C)C)NC(=O)[C@H](CC(C)C)NC(=O)OCc1ccccc1 [MG132] (Cbz-Leu-Leu-Leu-aldehyde)
- effect on amount of fusion protein synthesized (proteasome [4]): dramatic increase in the amount of fusion protein synthesized

- IC50 (group II caspases; Jurkat cells expressing 2XUb-DEVD-Bla, 50 ng/ml anti-Fas IgM, read-out: IC50 inhibition of anti-Fas induced caspase activity): 5 µM
SMILES: COC(=O)C[C@H](NC(=O)[C@H](C)NC(=O)[C@@H](NC(=O)OCc1ccccc1)C(C)C)C(=O)CF [Z-VAD-fmk] (Cbz-Val-Ala-Asp(OMe)-CH2F)
- effect on stabilization of DEVD-Bla reporters (group II caspases; 10 μM coincident with anti-Fas addition): blocked the stabilization of DEVD-Bla reporters

SMILES: COC1=C2C[C@@H](C)C[C@H](OC)[C@H](O)[C@@H](C)/C=C(\C)[C@H](OC(N)=O)[C@@H](OC)/C=C\C=C(/C)C(=O)NC(=CC1=O)C2=O [geldanamycin]
- 460/530 nm ratio (HRV16 2A protease): 0.239
- 460/530 nm ratio (HRV14 2A protease): 0.153

SMILES: CC(=O)N[C@@H](CSC(=O)[C@]1([C@@H](O)C(C)C)NC(=O)[C@H](C)[C@@H]1O)C(=O)O [lactacystin]
- effect on degradation of 2XUb-Bla in vitro (proteasome [2]; 10 μM): stabilized the 2XUb-Bla fusion protein

SMILES: C[C@@H]1C[C@H]2O[C@@H]2/C=C\C=C\C(=O)Cc2c(Cl)c(O)cc(O)c2C(=O)O1 [radicicol]
- 460/530 nm ratio (HRV16 2A protease): 0.229
- 460/530 nm ratio (HRV14 2A protease): 0.152
- inhibition of β-lactamase activity (control) (β-lactamase): did not inhibit β-lactamase activity
